Assay results taken from US12187742B2 (XRAD Therapeutics, Inc., priority 2018, dated 2025).
Where a name gives a salt, the structure may show the parent alone.

Tests used:
ATM = ATM (Homo sapiens (Human), UniProt Q13315); assay: ATM in Cell Western Assay (pKAP1 in etoposide-treated MCF-7 cells); format: cell-based; settings: MCF-7 cells, etoposide 100 μM, 1 hr, pKAP1 readout
Outline: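 Cells received compounds in a 10-dose, 3-fold series from a 1 μM final top concentration, then 100 μM etoposide, for 1 hr at 37° C. They were then fixed with paraformaldehyde and permeabilized with 0.1% Triton X-100. After immunostaining, plates were scanned on an infrared imager.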

DNA-PK = DNA-PK (Homo sapiens (Human), UniProt P78527); assay: DNA-PK Enzyme-Linked Immunosorbent Assay (phosphorylation of GST-p53 (1-101) peptide); format: biochemical; settings: ELISA, ATP 20 μM
Outline: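 ELISA with plate-bound GST-p53 (1-101) phosphorylated by DNA-PK (0.1 μg/mL final) with 20 μM ATP for 1 h at 25 °C. Compounds tested over 10 3-fold doses from 100 nM top final. Phospho-p53 Ser15 detected by antibody, HRP and TMB, absorbance at 450 nm.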

Chain of ATM (Q13315 whole entry): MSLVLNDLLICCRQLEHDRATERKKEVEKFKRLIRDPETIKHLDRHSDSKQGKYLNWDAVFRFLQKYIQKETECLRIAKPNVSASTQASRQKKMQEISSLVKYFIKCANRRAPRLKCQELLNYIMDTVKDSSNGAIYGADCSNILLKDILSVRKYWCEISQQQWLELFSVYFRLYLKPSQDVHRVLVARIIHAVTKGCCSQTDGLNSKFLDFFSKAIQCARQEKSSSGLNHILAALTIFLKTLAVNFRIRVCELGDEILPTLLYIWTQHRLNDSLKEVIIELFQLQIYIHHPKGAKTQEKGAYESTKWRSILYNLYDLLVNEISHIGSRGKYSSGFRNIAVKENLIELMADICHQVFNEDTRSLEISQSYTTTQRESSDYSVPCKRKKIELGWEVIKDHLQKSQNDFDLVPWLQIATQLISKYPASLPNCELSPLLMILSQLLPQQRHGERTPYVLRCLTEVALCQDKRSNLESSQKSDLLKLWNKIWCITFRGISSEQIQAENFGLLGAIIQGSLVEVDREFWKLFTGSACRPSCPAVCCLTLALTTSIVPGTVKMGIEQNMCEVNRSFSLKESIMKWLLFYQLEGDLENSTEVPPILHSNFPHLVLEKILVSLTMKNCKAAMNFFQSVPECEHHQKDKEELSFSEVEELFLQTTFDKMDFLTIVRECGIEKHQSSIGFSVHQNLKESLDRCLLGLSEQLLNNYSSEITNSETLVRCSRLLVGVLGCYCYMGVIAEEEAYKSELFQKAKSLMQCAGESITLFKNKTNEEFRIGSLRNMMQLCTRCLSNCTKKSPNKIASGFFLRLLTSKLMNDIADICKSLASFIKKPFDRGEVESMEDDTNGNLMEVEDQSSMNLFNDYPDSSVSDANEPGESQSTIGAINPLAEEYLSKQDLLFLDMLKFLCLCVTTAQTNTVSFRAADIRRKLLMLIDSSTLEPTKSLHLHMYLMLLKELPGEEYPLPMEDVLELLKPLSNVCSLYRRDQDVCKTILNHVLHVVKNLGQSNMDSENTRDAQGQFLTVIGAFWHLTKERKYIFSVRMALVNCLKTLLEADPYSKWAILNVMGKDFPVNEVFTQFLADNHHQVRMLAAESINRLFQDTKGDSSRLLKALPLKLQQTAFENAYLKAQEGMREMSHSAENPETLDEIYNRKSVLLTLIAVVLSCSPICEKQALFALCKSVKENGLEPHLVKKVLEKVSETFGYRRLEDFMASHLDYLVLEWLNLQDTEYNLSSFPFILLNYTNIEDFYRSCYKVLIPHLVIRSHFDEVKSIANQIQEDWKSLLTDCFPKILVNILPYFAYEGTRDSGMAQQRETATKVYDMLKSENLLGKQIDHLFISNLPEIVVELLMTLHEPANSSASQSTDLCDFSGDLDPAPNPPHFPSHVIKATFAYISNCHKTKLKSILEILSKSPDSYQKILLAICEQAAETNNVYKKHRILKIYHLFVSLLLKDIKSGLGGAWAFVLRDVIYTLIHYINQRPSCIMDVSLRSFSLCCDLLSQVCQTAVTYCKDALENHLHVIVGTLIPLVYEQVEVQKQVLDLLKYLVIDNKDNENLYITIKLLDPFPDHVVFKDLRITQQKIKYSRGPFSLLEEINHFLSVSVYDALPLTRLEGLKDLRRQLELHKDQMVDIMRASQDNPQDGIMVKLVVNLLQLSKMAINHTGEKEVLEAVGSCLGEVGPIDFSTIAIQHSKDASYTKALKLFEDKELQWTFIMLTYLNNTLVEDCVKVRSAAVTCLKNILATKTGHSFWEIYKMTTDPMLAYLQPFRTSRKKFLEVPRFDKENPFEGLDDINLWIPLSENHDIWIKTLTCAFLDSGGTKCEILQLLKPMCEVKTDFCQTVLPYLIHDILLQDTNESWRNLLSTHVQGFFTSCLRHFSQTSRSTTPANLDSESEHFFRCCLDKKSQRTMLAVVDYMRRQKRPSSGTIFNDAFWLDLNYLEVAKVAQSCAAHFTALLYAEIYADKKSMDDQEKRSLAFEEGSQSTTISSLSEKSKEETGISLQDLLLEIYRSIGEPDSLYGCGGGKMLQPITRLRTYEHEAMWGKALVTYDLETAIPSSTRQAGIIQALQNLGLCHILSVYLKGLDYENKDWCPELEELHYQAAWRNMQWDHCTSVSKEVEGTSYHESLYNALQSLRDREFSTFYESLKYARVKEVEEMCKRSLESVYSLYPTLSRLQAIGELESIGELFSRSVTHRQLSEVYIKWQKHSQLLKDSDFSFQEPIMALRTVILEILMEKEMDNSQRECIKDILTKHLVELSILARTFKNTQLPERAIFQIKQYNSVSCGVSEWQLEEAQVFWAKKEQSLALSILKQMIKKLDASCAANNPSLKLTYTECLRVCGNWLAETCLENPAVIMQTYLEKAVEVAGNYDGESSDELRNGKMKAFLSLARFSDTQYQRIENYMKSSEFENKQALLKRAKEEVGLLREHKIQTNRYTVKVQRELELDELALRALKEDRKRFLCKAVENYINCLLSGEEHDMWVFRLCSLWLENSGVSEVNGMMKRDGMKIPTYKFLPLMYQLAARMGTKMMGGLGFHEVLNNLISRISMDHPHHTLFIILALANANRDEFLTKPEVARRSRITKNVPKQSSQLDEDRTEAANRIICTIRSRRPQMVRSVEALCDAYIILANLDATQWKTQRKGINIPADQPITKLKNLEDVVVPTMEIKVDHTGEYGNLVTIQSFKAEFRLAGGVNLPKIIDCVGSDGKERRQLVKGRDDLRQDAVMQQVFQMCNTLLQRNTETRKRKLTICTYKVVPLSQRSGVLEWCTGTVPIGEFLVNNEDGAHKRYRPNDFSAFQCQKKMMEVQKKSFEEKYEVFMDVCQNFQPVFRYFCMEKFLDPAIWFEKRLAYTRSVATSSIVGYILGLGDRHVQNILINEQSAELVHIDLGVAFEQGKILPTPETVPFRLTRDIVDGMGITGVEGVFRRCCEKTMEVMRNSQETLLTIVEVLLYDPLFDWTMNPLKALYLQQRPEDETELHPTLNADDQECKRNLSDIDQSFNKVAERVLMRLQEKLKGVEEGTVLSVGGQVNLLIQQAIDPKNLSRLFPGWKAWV

Row | IC50 (ATM) [nM] | IC50 (DNA-PK) [nM] | SMILES
1 | 1 to 100 | 0.5 to 1 | Cc1ccc(S(=O)(=O)Nc2cc(-c3ccc4ncc5c(c4c3F)C3(CCC3)C(=O)N5C)cnc2OCCCN(C)C)cc1 [Example 204, N-(2-(3-(Dimethylamino)propoxy)-5-(9′-fluoro-3′-methyl-2′-oxo-2′,3′-dihydrospiro[cyclobutane-1,1′-pyrrolo[2,3-c]quinolin]-8′-yl)pyridin-3-yl)-4-methylbenzenesulfonamide]
2 | 1 to 100 | < 0.5 | CN(C)CCCOc1ncc(-c2ccc3ncc4c(c3c2)C2(CCC2)C(=O)N4C)cc1NS(=O)(=O)C1COC1 [Example 205, N-(2-(3-(Dimethylamino)propoxy)-5-(3′-methyl-2′-oxo-2′,3′-dihydrospiro[cyclobutane-1,1′-pyrrolo[2,3-c]quinolin]-8′-yl)pyridin-3-yl)oxetane-3-sulfonamide]
3 | 1 to 100 | < 0.5 | CN1C(=O)C2(CCC2)c2c1cnc1ccc(-c3cnc(N4CCC(N5CCCCC5)CC4)c(NS(=O)(=O)c4ccc(F)cc4F)c3)cc21 [Example 206, N-(2-([1,4′-Bipiperidin]-1′-yl)-5-(3′-methyl-2′-oxo-2′,3′-dihydrospiro[cyclobutane-1,1′-pyrrolo[2,3-c]quinolin]-8′-yl)pyridin-3-yl)-2,4-difluorobenzenesulfonamide hydrochloride]
4 | 1 to 100 | 1 to 100 | CCN(C)S(=O)(=O)Nc1cc(-c2ccc3ncc4c(c3c2)C2(CCC2)C(=O)N4C)cnc1N1CCC(N2CCCCC2)CC1 [Example 212, 8′-(6-{[1,4′-Bipiperidine]-1′-yl}-5-[(ethyl(methyl)sulfamoyl)amino}pyridin-3-yl)-3′-methyl-2′,3′-dihydrospiro[cyclobutane-1,1′-pyrrolo[2,3-c]quinoline]-2′-one]
5 | 1 to 100 | 1 to 100 | CN1C(=O)C2(CC2)c2c1cnc1ccc(-c3cnc(N4CCC(N5CCCCC5)CC4)c(NS(=O)(=O)c4ccccc4)c3)cc21 [Example 213, N-(2-([1,4′-Bipiperidin]-1′-yl)-5-(3′-methyl-2′-oxo-2′,3′-dihydrospiro[cyclopropane-1,1′-pyrrolo[2,3-c]quinolin]-8′-yl)pyridin-3-yl)benzenesulfonamide methanesulfonate]
6 | 0.5 to 1 | < 0.5 | Cc1ccc(S(=O)(=O)Nc2cc(-c3ccc4ncc5c(c4c3F)C3(CC3)C(=O)N5C)cnc2OCCCN(C)C)cc1 [Example 215, N-(2-(3-(Dimethylamino)propoxy)-5-(9′-fluoro-3′-methyl-2′-oxo-2′,3′-dihydrospiro[cyclopropane-1,1′-pyrrolo[2,3-c]quinolin]-8′-yl)pyridin-3-yl)-4-methylbenzenesulfonamide]
7 | 1 to 100 | 1 to 100 | Cc1ccc(S(=O)(=O)n2c(CCN3CCCCC3)cc3ncc(-c4ccc5ncc6c(c5c4)C4(CCC4)C(=O)N6C)cc32)cn1 [Example 216, 3′-Metbyl-8′-(1-((6-methylpyridin-3-yl)sulfonyl)-2-(2-(piperidin-1-yl)ethyl)-1H-pyrrolo[3,2-b]pyridin-6-yl)spiro[cyclobutane-1,1′-pyrrolo[2,3-c]quinolin]-2′(3′-H)-one]
8 | 1 to 100 | < 0.5 | Cc1ccc(S(=O)(=O)Nc2cc(-c3ccc4ncc5c(c4c3)C3(CC3)C(=O)N5C)cnc2N2CCC(N3CCCCC3)CC2)cn1 [Example 218]
9 | 1 to 100 | < 0.5 | CN(C)CCCOc1ncc(-c2ccc3ncc4c(c3c2)C2(CCC2)C(=O)N4C)cc1NS(=O)(=O)c1ccc(O)cc1 [Example 220, N-(2-(3-(Dimethylamino)propoxy)-5-(3′-methyl-2′-oxo-2′,3′-dihydrospiro [cyclobutane-1,1′-pyrrolo[2,3-c]quinolin]-8′-yl)pyridin-3-yl)-4-hydroxybenzenesulfonamide hydrochloride]
10 | 1 to 100 | 1 to 100 | CCN(C)S(=O)(=O)Nc1cc(-c2ccc3ncc4c(c3c2)C2(CCC2)C(=O)N4C)cnc1OCCCN1CCCCC1 [Example 222, 8′-(5-{[Ethyl(methyl)sulfamoyl]amino}-6-[3-(piperidin-1-yl)propoxy]pyridin-3-yl)-3′-methyl-2′,3′-dihydrospiro [cyclobutane-1,1′-pyrrolo[2,3-c]quinoline]-2′-one]
11 | 1 to 100 | < 0.5 | CN(C)CCCOc1ncc(-c2ccc3ncc4c(c3c2)C2(CCC2)C(=O)N4C)cc1NS(=O)(=O)CCN [Example 223, 2-Amino-N-(2-(3-(dimethylamino)propoxy)-5-(3′-methyl-2′-oxo-2′,3′-dihydrospiro[cyclobutane-1,1′-pyrrolo[2,3-c]quinolin]-8′-yl)pyridin-3-yl)ethane-1-sulfonamide]
12 | 1 to 100 | < 0.5 | CN1C(=O)C2(CCC2)c2c1cnc1ccc(-c3cnc(OCCCN4CCCCC4)c(NS(C)(=O)=O)c3)cc21 [Example 225, N-(5-(3′-Methyl-2′-oxo-2′,3′-dihydrospiro[cyclobutane-1,1′-pyrrolo[2,3-c]quinolin]-8′-yl)-2-(3-(piperidin-1-yl)propoxy)pyridin-3-yl)methanesulfonamide]
13 | 0.5 to 1 | < 0.5 | CN1C(=O)C2(CCC2)c2c1cnc1ccc(-c3cnc(N4CCC(N5CCCCC5)CC4)c(NS(C)(=O)=O)c3)cc21 [Example 228, N-(2-([1,4′-Bipiperidin]-1′-yl)-5-(3′-methyl-2′-oxo-2′,3′-dihydrospiro[cyclobutane-1,1′-pyrrolo[2,3-c]quinolin]-8′-yl)pyridin-3-yl)methanesulfonamide]

Second part, the compound before the results:

Row | SMILES | IC50 (ATM) [nM] | IC50 (DNA-PK) [nM]
14 | CN1C(=O)C2(CCC2)c2c1cnc1ccc(-c3cnc(N4CCC(N5CCCCC5)CC4)c(NS(=O)(=O)C4CC4)c3)cc21 [Example 207, N-(2-([1,4′-Bipiperidin]-1′-yl)-5-(3′-methyl-2′-oxo-2′,3′-dihydrospiro[cyclobutane-1,1′-pyrrolo[2,3-c]quinolin]-8′-yl)pyridin-3-yl)cyclopropanesulfonamide hydrochloride] | 1 to 100 | < 0.5
15 | CN1C(=O)C2(CCC2)c2c1cnc1ccc(-c3cnc(N4CCC(N5CCCCC5)CC4)c(NS(=O)(=O)N(C)C)c3)cc21 [Example 208, 8′-(6-{[1,4′-Bipiperidine]-1′-yl}-5-[(dimethylsulfamoyl)amino]pyridin-3-yl)-3′-methyl-2′,3′-dihydrospiro[cyclobutane-1,1′-pyrrolo[2,3-c]quinoline]-2′-one] | 1 to 100 | < 0.5
16 | CCN(C)S(=O)(=O)Nc1cc(-c2ccc3ncc4c(c3c2)C2(CC2)C(=O)N4C)cnc1N1CCC(N2CCCCC2)CC1 [Example 214] | 0.5 to 1 | 0.5 to 1
17 | Cc1ccc(S(=O)(=O)Nc2cc(-c3cc4c5c(cnc4cc3F)N(C)C(=O)C53CCC3)cnc2OCCCN2CCCCC2)cn1 [Example 217, N-(5-(7′-Fluoro-3′-methyl-2′-oxo-2′,3′-dihydrospiro[cyclobulane-1,1′-pyrrolo[2,3-c]quinolin]-8′-yl)-2-(3-(piperidin-1-yl)propoxy)pyridin-3-yl)-6-methylpyridine-3-sulfonamide hydrochloride] | 1 to 100 | 1 to 100
18 | Cl.[2H]C1([2H])N(CCCOc2ncc(-c3ccc4ncc5c(c4c3)C3(CCC3)C(=O)N5C)cc2NS(=O)(=O)c2ccc(C)nc2)C([2H])([2H])C([2H])([2H])C([2H])([2H])C1([2H])[2H] [Example 221, 6-Methyl-N-(5-(3′-methyl-2′-oxo-2′,3′-dihydrospiro[cyclobulane-1,1′-pyrrolo[2,3-c]quinolin]-8′-yl)-2-(3-(piperidin-1-yl-d10)propoxy)pyridin-3-yl)pyridine-3-sulfonamide hydrochloride] | 1 to 100 | 0.5 to 1
19 | CN1C(=O)C2(CCC2)c2c1cnc1ccc(-c3cnc(N4CCC(N(C)C)CC4)c(NS(C)(=O)=O)c3)cc21 [Example 224, N-(2-(4-(Dimethylamino)piperidin-1-yl)-5-(3′-methyl-2′-oxo-2′,3′-dihydrospiro[cyclobutane-1,1′-pyrrolo[2,3-c]quinolin]-8′-yl)pyridin-3-yl)methanesulfonamide] | 1 to 100 | < 0.5
20 | CN1C(=O)C2(CCC2)c2c1cnc1ccc(-c3cnc(N4CCC(N(C)C)CC4)c(NS(=O)(=O)N(C)C)c3)cc21 [Example 226, 8′-{6-[4-(Dimethylamino)piperidin-1-yl]-5-[(dimethylsulfamoyl)amino]pyridin-3-yl}-3′-methyl-2′,3′-dihydrospiro[cyclobutane-1,1′-pyrrolo[2,3-c]quinoline]-2′-one] | 0.5 to 1 | < 0.5
21 | CN1CCN(c2ncc(-c3ccc4ncc5c(c4c3)C3(CCC3)C(=O)N5C)cc2NS(=O)(=O)C2CC2)CC1 [Example 227, N-(5-(3′-Methyl-2′-oxo-2′,3′-dihydrospiro[cyclobutane-1,1′-pyrrolo[2,3-c]quinolin]-8′-yl)-2-(4-methylpiperazin-1-yl)pyridin-3-yl)cyclopropanesulfonamide hydrochloride] | 0.5 to 1 | < 0.5
22 | CN1CCN(c2ncc(-c3ccc4ncc5c(c4c3)C3(CCC3)C(=O)N5C)cc2NS(C)(=O)=O)CC1 [Example 229, N-(5-(3′-Methyl-2′-oxo-2′,3′-dihydrospiro[cyclobutane-1,1′-pyrrolo[2,3-c]quinolin]-8′-yl)-2-(4-methylpiperazin-1-yl)pyridin-3-yl)methanesulfonamide] | 0.5 to 1 | < 0.5
23 | CN1CCN(c2ncc(-c3ccc4ncc5c(c4c3)C3(CCC3)C(=O)N5C)cc2NS(=O)(=O)N(C)C)CC1 [Example 230, 8′-{5-[(Dimethylsulfamoyl)amino]-6-(4-methylpiperazin-1-yl)pyridin-3-yl}-3′-methyl-2′,3′-dihydrospiro[cyclobutane-1,1′-pyrrolo[2,3-c]quinoline]-2′-one] | 1 to 100 | < 0.5
